Assay results: ChEMBL document CHEMBL4354851, “Aggregation-Induced Emission Photosensitizers: From Molecular Design to Photodynamic Therapy” (2020)

Experiments:
[1] = Induction of […] generation assessed as bleaching rate of ABDA under white light irradiation relative to control; assay type: functional
[2] = tested on: HeLa; experiment: Photodynamic activity in human HeLa cells assessed as light dose required to kill 50% of cells by fluorescein diacetate and propidium iodide dye based fluorescence assay; assay type: functional

SMILES	Activity [1] [%]	Activity [2] [kJ/cm2]
C=Cc1c(C)c2cc3nc(c(CC(=O)O)c4[nH]c(cc5nc(cc1[nH]2)C(C)=C5CC)c(C)c4C(=O)O)C(CCC(=O)O)C3C (centres undefined)	16.7	
Cc1ccc(N(c2ccc(C)cc2)c2ccc(-c3ccc(/C=C/c4cc[n+](C)cc4)s3)cc2)cc1	90.7	
CCC[n+]1cc2ccc(-c3ccc(N(c4ccccc4)c4ccccc4)cc3)cc2c(-c2ccccc2)c1-c1ccccc1.F[B-](F)(F)F		3.7
O=C(O)c1c(Cl)c(Cl)c(Cl)c(Cl)c1-c1c2cc(I)c(=O)c(I)c-2oc2c(I)c(O)c(I)cc12	55.6	
